Tests used:
[1] = in vivo; conditions: female, SW, mouse, iv
Experimental: Tissue samples were prepared by homogenizing a weighed tissue sample in phosphor-buffered saline (PBS, ×1)+1% DTT (×1)+CH3CN (0.1% HCOOH) (×3)), centrifuged at 10,000 rpm×5 min; 150 μL supernatant+90 μL H2O. 100 μL prepared samples were subjected to HPLC, using 5-95% CH3CN (0.1% HCOOH) as the eluent. The running time was 15 min.

[2] = system: Stage IV metastatic melanoma patients; conditions: RECIST, Efficacy Sample
Experimental: Patients were treated until progression of the disease. […] The tumor assessments were performed at baseline, Cycle 2, and every other Cycle thereafter.

Row | SMILES | Kp at 30 min [1] | concentration at 30 min [1] [µM] | CR + PR (95% CI) [2]
1 | CN(NC(=O)CC(=O)NN(C)C(=S)C1CC1)C(=S)C1CC1 [Compound (18)] | ~1.64 | ~51 | –
2 | CC(=O)O[C@H]1C(=O)[C@@]2(C)[C@H]([C@H](OC(=O)c3ccccc3)[C@]3(O)C[C@H](OC(=O)[C@H](O)[C@@H](NC(=O)c4ccccc4)c4ccccc4)C(C)=C1C3(C)C)[C@]1(OC(C)=O)CO[C@@H]1C[C@@H]2O [Paclitaxel] | – | – | 3.7% (0.1%,

Source: patent US20100068174A1, “COMBINATION WITH BIS (THIOHYDRAZIDE AMIDES) FOR TREATING CANCER” (Synta Pharmaceuticals Corp., priority 2006, published 2010)
